The source made the active and inactive calls. The rule behind the calls is not given here.
Tests used:
[1] = biological target: T1, Amine oxidase [flavin-containing] B (Homo sapiens, UniProt P27338)
T1 sequence (P27338 whole entry): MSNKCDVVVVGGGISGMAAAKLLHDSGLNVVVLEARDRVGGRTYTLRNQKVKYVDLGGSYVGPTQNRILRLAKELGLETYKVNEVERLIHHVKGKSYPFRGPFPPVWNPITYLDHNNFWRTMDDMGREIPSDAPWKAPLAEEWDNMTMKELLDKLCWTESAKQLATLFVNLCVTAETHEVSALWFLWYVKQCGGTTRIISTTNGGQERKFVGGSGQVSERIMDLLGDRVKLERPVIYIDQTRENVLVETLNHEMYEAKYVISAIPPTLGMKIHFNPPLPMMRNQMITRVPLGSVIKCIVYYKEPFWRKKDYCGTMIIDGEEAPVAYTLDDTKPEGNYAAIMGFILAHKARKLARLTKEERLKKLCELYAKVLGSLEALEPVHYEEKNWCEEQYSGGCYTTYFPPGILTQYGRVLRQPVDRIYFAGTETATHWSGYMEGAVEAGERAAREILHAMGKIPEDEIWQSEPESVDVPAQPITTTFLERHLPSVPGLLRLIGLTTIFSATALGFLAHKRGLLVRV
Description: Inhibition of human recombinant MAO-B using kynuramine as substrate measured after 30 mins by fluorescence assay

[2] = biological target: T2, Amine oxidase [flavin-containing] A (Homo sapiens, UniProt P21397); assay: Inhibition of human recombinant MAO-A using kynuramine as substrate at 20 uM measured after 30 mins by fluorescence assay relative to control; settings: 0.5 h
T2 sequence (P21397 whole entry): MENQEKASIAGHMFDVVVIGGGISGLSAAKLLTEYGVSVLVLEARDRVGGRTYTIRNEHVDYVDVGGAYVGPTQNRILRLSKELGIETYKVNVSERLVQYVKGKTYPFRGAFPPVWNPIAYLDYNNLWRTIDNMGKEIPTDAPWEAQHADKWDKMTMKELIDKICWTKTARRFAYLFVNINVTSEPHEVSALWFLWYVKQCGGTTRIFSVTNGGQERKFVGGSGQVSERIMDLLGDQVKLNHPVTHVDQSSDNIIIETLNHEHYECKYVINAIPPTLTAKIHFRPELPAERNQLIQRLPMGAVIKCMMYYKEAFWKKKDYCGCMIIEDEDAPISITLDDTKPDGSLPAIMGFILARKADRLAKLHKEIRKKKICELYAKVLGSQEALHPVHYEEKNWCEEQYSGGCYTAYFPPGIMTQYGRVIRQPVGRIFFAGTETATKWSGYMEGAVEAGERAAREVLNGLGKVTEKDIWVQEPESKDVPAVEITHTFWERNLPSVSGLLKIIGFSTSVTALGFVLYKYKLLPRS

[3] = Antioxidant activity assessed as trolox equivalent of […]-induced radical scavenging activity preincubated for 15 mins followed by AAPH addition measured every minute for 120 mins by ORAC fluorescein assay; type: functional
Acetylcholinesterase = Acetylcholinesterase (Electrophorus electricus, UniProt O42275); assay: Inhibition of Electrophorus electricus AChE using acetylthiocholine iodide as substrate measured after 15 mins by Ellman's method
[4] = biological target: Amyloid-beta precursor protein (Homo sapiens) (UniProt P05067); assay: Inhibition of self-mediated aggregation of amyloid beta (1 to 42 residues) (unknown origin) at 25 uM incubated for 24 hrs by Thioflavin T fluorescence assay relative to control
[5] = Inhibition of copper-mediated aggregation of amyloid beta (1 to 42 residues) (unknown origin) at 25 uM incubated for 24 hrs by thioflavin-T fluorescence assay relative to control; type: physicochemical
Homo sapiens = species: Homo sapiens; assay: Selectivity index, ratio of IC50 for human recombinant MAO-A to IC50 for human recombinant MAO-B
[6] = biological target: Butyrylcholinesterase (Rattus norvegicus) (UniProt Q9JKC1); assay: Inhibition of rat serum BuChE at 50 uM measured after 15 mins by Ellman's method relative to control
[7] = Permeability of the compound at 100 ug/ml after 18 hrs by PAMPA assay; type: ADME; settings: read-out: permeability
[8] = Metal chelating activity assessed as aluminium-compound complex formation at 37.5 uM in presence of AlCl3 measured after 30 mins by UV-vis spectrometry; type: physicochemical; settings: 0.5 h
[9] = Metal chelating activity assessed as zinc-compound complex formation at 37.5 uM in presence of ZnCl2 measured after 30 mins by UV-vis spectrometry; type: physicochemical; settings: 0.5 h
[10] = Metal chelating activity assessed as copper-compound complex formation at 37.5 uM in presence of CuCl2 measured after 30 mins by UV-vis spectrometry; type: physicochemical; settings: 0.5 h
[11] = Metal chelating activity assessed as iron-compound complex formation at 37.5 uM in presence of FeSO4 measured after 30 mins by UV-vis spectrometry; type: physicochemical; settings: 0.5 h
[12] = biological target: T1, Amine oxidase [flavin-containing] B; assay: Inhibition of human recombinant MAO-B using kynuramine as substrate at 20 uM measured after 30 mins by fluorescence assay relative to control; settings: 0.5 h
[13] = Cytotoxicity against rat PC12 cells assessed as cell viability at 100 uM measured after 48 hrs by MTT assay relative to control; type: toxicity, PC-12; settings: read-out: Activity
Rattus norvegicus = species: Rattus norvegicus; assay: Cytotoxicity against rat PC12 cells assessed as effect on cell viability at 1 to 10 uM measured after 48 hrs by MTT assay; type: toxicity, cell-based; settings: pc-12, 48 h
[14] = biological target: Acetylcholinesterase (Electrophorus electricus) (UniProt O42275); assay: Mixed-type inhibition of […] AChE preincubated for 15 mins followed by addition of acetylthiocholine iodide as substrate in varying concentrations by Lineweaver-Burk reciprocal plot analysis
Chain of Acetylcholinesterase (Electrophorus electricus) (O42275 24-633 limits assumed): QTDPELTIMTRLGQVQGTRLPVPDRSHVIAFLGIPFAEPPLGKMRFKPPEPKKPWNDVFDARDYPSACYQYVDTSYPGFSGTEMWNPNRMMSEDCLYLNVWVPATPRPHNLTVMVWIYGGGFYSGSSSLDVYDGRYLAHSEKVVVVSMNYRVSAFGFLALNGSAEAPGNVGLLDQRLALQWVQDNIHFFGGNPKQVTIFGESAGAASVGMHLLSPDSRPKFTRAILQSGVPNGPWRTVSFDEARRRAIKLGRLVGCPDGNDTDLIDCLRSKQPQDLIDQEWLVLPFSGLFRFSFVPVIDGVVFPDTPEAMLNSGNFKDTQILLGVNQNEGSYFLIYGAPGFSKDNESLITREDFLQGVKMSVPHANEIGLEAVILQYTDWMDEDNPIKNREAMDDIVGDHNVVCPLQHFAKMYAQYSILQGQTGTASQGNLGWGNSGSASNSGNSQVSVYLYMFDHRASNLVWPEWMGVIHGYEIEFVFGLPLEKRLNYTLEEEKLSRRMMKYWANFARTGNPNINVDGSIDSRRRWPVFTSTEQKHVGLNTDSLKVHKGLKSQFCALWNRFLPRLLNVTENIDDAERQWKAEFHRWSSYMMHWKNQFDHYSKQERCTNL

Chain of Amyloid-beta precursor protein (Homo sapiens) (P05067 whole entry, the tested form may be a part): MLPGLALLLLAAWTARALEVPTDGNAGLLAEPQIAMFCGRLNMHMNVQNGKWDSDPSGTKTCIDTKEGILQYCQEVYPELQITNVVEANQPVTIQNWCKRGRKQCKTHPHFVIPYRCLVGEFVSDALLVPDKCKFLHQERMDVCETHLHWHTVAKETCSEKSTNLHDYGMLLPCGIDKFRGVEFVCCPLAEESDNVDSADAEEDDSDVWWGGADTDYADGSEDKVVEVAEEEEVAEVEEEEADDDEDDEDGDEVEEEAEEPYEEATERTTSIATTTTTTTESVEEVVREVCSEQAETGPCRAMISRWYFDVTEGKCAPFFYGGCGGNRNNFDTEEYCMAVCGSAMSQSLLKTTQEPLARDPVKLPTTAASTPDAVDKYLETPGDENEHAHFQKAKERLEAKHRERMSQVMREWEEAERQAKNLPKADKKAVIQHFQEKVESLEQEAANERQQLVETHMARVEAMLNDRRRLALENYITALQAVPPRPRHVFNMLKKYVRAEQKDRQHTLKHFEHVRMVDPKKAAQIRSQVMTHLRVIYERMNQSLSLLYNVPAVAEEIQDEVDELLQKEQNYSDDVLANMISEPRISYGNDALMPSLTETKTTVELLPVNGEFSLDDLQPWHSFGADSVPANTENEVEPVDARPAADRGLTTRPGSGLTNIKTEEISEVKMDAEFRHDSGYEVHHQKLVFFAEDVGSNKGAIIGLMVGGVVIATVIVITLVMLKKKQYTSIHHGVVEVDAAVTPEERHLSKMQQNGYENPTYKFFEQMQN
Chain of Butyrylcholinesterase (Rattus norvegicus) (Q9JKC1 as listed by the source): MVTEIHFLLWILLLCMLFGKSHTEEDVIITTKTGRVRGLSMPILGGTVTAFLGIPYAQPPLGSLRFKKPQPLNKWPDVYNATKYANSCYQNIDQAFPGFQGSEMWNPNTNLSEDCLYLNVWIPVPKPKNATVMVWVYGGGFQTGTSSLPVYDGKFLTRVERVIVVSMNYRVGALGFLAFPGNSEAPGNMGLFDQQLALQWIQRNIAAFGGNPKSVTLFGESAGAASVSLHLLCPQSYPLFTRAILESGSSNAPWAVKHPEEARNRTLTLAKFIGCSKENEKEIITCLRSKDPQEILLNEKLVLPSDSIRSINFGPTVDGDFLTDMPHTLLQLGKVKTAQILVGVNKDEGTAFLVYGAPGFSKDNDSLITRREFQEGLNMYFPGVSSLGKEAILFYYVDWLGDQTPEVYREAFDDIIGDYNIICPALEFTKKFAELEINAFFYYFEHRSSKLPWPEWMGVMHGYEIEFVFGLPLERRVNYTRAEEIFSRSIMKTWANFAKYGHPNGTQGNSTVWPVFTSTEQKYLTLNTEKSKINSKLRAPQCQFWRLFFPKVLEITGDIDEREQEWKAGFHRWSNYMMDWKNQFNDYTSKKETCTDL
Chain of Acetylcholinesterase (O42275 whole entry, the tested form may be a part): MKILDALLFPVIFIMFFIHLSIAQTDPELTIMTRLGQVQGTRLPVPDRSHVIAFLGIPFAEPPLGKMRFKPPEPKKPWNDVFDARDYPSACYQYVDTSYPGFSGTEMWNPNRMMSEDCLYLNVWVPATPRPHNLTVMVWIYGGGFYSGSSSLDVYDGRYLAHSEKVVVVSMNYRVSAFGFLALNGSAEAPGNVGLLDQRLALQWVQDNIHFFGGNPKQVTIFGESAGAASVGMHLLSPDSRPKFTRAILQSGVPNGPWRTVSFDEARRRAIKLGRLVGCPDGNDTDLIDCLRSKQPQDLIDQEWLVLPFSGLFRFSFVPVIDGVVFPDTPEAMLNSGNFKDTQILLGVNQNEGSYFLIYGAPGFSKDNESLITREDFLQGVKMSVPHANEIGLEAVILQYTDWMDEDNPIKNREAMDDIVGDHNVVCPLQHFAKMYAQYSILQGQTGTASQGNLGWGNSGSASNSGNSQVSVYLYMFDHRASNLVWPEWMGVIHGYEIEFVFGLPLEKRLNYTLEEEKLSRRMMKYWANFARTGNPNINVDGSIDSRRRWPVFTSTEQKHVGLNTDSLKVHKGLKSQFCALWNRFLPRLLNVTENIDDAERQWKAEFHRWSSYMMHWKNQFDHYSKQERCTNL

Row | Structure (SMILES) | IC50 [1] [nM] | inhibition [2] [%] | Activity [3] [equiv] | IC50 (Acetylcholinesterase) [µM] | inhibition [4] [%] | inhibition (INH) [5] [%] | Ratio IC50 (Homo sapiens) | inhibition [6] [%] | Papp at 18 h, 100 ug/ml [7] [×10⁻⁶ cm/s] | Activity [8] | Activity [9] | Activity [10] | Activity [11] | inhibition at 20 µM [12] [%] | viability at 48 h, 100 µM [13] [%] | Activity (Rattus norvegicus) | inhibition [14]
1 | COc1cc2c(cc1OC)C(=O)/C(=C/c1ccc(CN(C)Cc3ccccc3)c(O)c1)CO2 | 1150 | 3.4 | 1.57 | 1.99 | 7.7 | 42.6 | > 17.4 | < 5 | – | – | – | – | – | – | – | – | –
2 | CCN(Cc1ccccc1)Cc1ccc(/C=C2\COc3cc(OC)c(OC)cc3C2=O)cc1O | 1720 | 15 | 1.13 | 0.364 | 32.7 | 49.9 | > 11.6 | < 5 | – | – | – | – | – | – | – | – | –
3 | COc1cc2c(cc1OC)C(=O)/C(=C/c1ccc(CN(C)C)c(O)c1)CO2 | 882 | 8.2 | 1.71 | 0.536 | 35.2 | 42.2 | > 22.7 | < 5 | – | – | – | – | – | – | – | – | –
4 | CCN(Cc1ccc(/C=C2\COc3cc(OC)c(OC)cc3C2=O)cc1O)Cc1ccccc1N(C)C | 1340 | 28.3 | 0.97 | 18.1 | 59.6 | 79.9 | > 14.9 | 44.6 | 10.5 | Active | Active | Active | Active | – | – | – | –
5 | COc1cc2c(cc1OC)C(=O)/C(=C/c1cccc(O)c1CN1CCN(C)CC1)CO2 | – | 6.8 | 1.83 | 84.1 | 26.8 | 36.3 | – | < 5 | – | – | – | – | – | 29.8 | – | – | –
6 | COc1cc(/C=C/C(=O)CC(=O)/C=C/c2ccc(O)c(OC)c2)ccc1O [CURCUMIN] | – | – | – | – | – | 67.2 | – | – | – | – | – | – | – | – | – | – | –
7 | COc1cc2c(cc1OC)C(=O)/C(=C/c1ccc(CN3CCCCC3)c(O)c1)CO2 | 1740 | 24.6 | 2.25 | 0.00249 | 39.3 | 47 | > 11.5 | 19.8 | 10.4 | Active | – | Active | Active | – | 63.4 | Non-Toxic | Active
8 | COc1cc2c(cc1OC)C(=O)/C(=C/c1ccc(CN3CCN(C)CC3)c(O)c1)CO2 | 915 | 40.5 | 2.11 | 6.26 | 41.9 | 40.5 | > 21.9 | < 5 | – | – | – | – | – | – | – | – | –
9 | CCN(Cc1ccccc1)Cc1c(O)cccc1/C=C1\COc2cc(OC)c(OC)cc2C1=O | – | 9.8 | 1.34 | 172 | 8 | 28 | – | < 5 | – | – | – | – | – | 38.1 | – | – | –
10 | COc1cc2c(cc1OC)C(=O)/C(=C/c1ccc(CN3CCCC3)c(O)c1)CO2 | 722 | 16.4 | 1.65 | 0.362 | 37.3 | 36.5 | > 27.7 | 24.1 | 11.1 | – | – | – | – | – | – | – | –
11 | COc1cc2c(cc1OC)C(=O)/C(=C/c1cccc(O)c1CN1CCOCC1)CO2 | – | 2.1 | 1.52 | 85.9 | 7.8 | 32.4 | – | 7.85 | – | – | – | – | – | 18.6 | – | – | –
12 | CCN(CC)Cc1c(O)cccc1/C=C1\COc2cc(OC)c(OC)cc2C1=O | – | 8.5 | 2.05 | 37.4 | 20.1 | 29.1 | – | 6.31 | – | – | – | – | – | 36.7 | – | – | –
13 | COc1cc2c(cc1OC)C(=O)/C(=C/c1ccc(CN3CCOCC3)c(O)c1)CO2 | 1010 | 23 | 1.35 | 1.29 | 28.3 | 38.7 | > 19.8 | < 5 | – | – | – | – | – | – | – | – | –
14 | CCN(CC)Cc1ccc(/C=C2\COc3cc(OC)c(OC)cc3C2=O)cc1O | 2430 | 9.5 | 1.97 | 0.0068 | 21.2 | 40.6 | > 8.2 | 7.72 | – | – | – | – | – | – | – | – | –
15 | CCN(Cc1ccc(/C=C2\COc3cc(OC)c(OC)cc3C2=O)cc1O)Cc1ccccc1OC | 1500 | 14 | 1.8 | 15.7 | 44 | 65.8 | > 13.3 | 22.7 | 6.05 | – | – | – | – | – | – | – | –
16 | COc1cc2c(cc1OC)C(=O)/C(=C/c1ccc(O)c(CN3CCCCC3)c1)CO2 | 14000 | 17 | 2.32 | 0.928 | 41.4 | 49 | > 1.4 | < 5 | – | – | – | – | – | – | – | – | –
17 | COc1ccccc1CN(C)Cc1ccc(/C=C2\COc3cc(OC)c(OC)cc3C2=O)cc1O | 1030 | 12.3 | 1.78 | 16.4 | 37.8 | 67.8 | > 19.4 | 11.2 | – | – | – | – | – | – | – | – | –
18 | COc1ccccc1CN(C)Cc1c(O)cccc1/C=C1\COc2cc(OC)c(OC)cc2C1=O | – | 9.8 | 1.69 | 33.3 | 35.6 | 54.9 | – | 16 | – | – | – | – | – | 43.9 | – | – | –
19 | COc1cc2c(cc1OC)C(=O)/C(=C/c1cccc(O)c1)CO2 | 190 | 21.9 | 1.73 | 59.3 | 20.1 | 30.3 | > 105 | 6.18 | – | – | – | – | – | – | – | – | –

Reference: ChEMBL document CHEMBL3872257, “Multitarget drug design strategy against Alzheimer's disease: Homoisoflavonoid Mannich base derivatives serve as acetylcholinesterase and monoamine oxidase B dual inhibitors with multifunctional properties” (Bioorg Med Chem, 2017)
